Assay [1] concerns the target T1, TAK1-TAB1 fusion protein (Homo sapiens, UniProt O43318).
T1 construct: purchased Carna
T1 sequence (O43318 with tags, fused parts or gaps limits assumed): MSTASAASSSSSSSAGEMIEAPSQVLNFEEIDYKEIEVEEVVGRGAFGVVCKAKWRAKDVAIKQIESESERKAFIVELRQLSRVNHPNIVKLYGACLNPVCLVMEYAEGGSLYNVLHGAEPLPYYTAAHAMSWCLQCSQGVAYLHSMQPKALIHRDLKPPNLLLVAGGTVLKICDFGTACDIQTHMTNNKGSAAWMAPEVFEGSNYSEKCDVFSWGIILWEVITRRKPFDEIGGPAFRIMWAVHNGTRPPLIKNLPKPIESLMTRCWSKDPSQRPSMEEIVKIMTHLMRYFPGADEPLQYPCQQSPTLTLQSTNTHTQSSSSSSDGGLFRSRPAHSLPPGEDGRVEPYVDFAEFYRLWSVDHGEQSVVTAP
Put plainly: TAK1 biochemical assay (AlphaScreen, GST-MAP2K7 substrate).

For assay [2], the system named is pJNK in HCT-116 cells. Briefly: Phospho-JNK (Thr183/Tyr185) Meso Scale ELISA assay, TNFα-stimulated HCT-116 cells. Format: cell-based. As to conditions: Homo sapiens, read-out: mean HCT-116 pJNK ELISA IC50 (Col. B). In outline:
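HCT-116 cells in 1% FCS medium were pretreated with compound for 4 hrs at 37° C, then stimulated with TNFα at 10 ng/mL final for 10 minutes. Lysates were taken in ice-cold lysis buffer with phosphatase and protease inhibitors, and phospho-JNK (Thr183/Tyr185) was measured by Meso Scale ELISA.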
On the technique in general: In an ELISA, binding on a coated surface is turned into a signal by an enzyme label.

The subject of assay [3] is p-p38 in HCT-116 cells. Briefly: Phospho-p38 Meso Scale ELISA assay, TNFα-stimulated HCT-116 cells. Format: cell-based. As to conditions: Homo sapiens, read-out: mean HCT-116 p-p38 ELISA IC50 (Col. C). In outline: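 HCT-116 cells in 1% FCS medium for 2 h, then compound for 4 h at 37° C, then TNFα at 10 ng/mL final for 10 min. Lysates captured overnight at 4° C and phospho-p38 quantified by Meso Scale electrochemiluminescence ELISA.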

[4] abbreviates: TAK1-TAB1 fusion protein, GST-MAP2K7 substrate, read-out: mean TAK1 IC50 (Col. A).

pIC50: −log10 of the molar value. Where two headings read alike, the source gives them in different places.

For 24 compounds, IC50 results are on record in US8378104B2 (OSI Pharmaceuticals, LLC, priority 2010, dated 2013).

Usually pIC50 stands for the IC50 on a negative log10 scale, so that one unit is a factor of ten.

Consider `CC(=O)N1CCC(n2cc(-c3cnc(N)c4oc(-c5cc(C)c(O)c(C)c5)cc34)cn2)CC1` [Example 138, 1-(4-{4-[7-amino-2-(4-hydroxy-3,5-dimethylphenyl)furo[2,3-c]pyridin-4-yl]-1H-pyrazol-1-yl}piperidin-1-yl)ethanone], for which the pIC50 is 5.00 to 6.00 in assay [1] (setting [4]), 6.00 to 7.00 in assay [2] and 5.00 to 6.00 in assay [3].
As for `Cn1cc(-c2cnc(N)c3oc(-c4csc5cnccc45)cc23)cn1` [Example 290, 4-(1-methyl-1H-pyrazol-4-yl)-2-thieno[2,3-c]pyridin-3-yl-furo[2,3-c]pyridin-7-ylamine], the pIC50 in assay [1], in assay [2] and in assay [3] was 6.00 to 7.00 throughout.
Turning to `CSc1ccc(-c2cc3c(-c4cnn(C5CCN(C(C)=O)CC5)c4)cnc(N)c3o2)cc1` [Example 113, 1-[4-(4-{7-amino-2-[4-(methylsulfanyl)phenyl]furo[2,3-c]pyridin-4-yl}-1H-pyrazol-1-yl)piperidin-1-yl]ethanone], the pIC50 in assay [1] (setting [4]) is below 5.00; in assay [2], 5.00 to 6.00; in assay [3], 5.00 to 6.00.
Regarding `Nc1ncc(-c2cnn(C3CCN(C(=O)C4CC4)CC3)c2)c2cc(-c3cccc4cnccc34)oc12` [Example 52, (4-{4-[7-amino-2-(isoquinolin-5-yl)furo[2,3-c]pyridin-4-yl]-1H-pyrazol-1-yl}piperidin-1-yl)(cyclopropyl)methanone], the pIC50 in assay [1] (setting [4]), in assay [2] and in assay [3] was 6.00 to 7.00 throughout.
For `CC(=O)N1CCC(n2cc(-c3cnc(N)c4oc(-c5cccc(C#N)c5)cc34)cn2)CC1` [Example 143, 3-{4-[1-(1-acetylpiperidin-4-yl)-1H-pyrazol-4-yl]-7-aminofuro[2,3-c]pyridin-2-yl}benzonitrile], the pIC50 in assay [1] (setting [4]), in assay [2] and in assay [3] was 6.00 to 7.00 in each case.
Turning to `CC(=O)N1CCC(n2cc(-c3cnc(N)c4oc(-c5ccsc5)cc34)cn2)CC1` [Example 174, 1-(4-{4-[7-amino-2-(thiophen-3-yl)furo[2,3-c]pyridin-4-yl]-1H-pyrazol-1-yl}piperidin-1-yl)ethanone], the results for the negative-log IC50 (pIC50) in assay [1] (setting [4]), in assay [2] and in assay [3] were 6.00 to 7.00, 5.00 to 6.00 and 5.00 to 6.00, respectively.
For `CNc1ncc(-c2cnn([C@H]3CC[C@H](O)CC3)c2)c2cc(-c3csc4cnccc34)oc12` [Example 281, trans-4-{4-[7-(methylamino)-2-(thieno[2,3-c]pyridin-3-yl)furo[2,3-c]pyridin-4-yl]-1H-pyrazol-1-yl}cyclohexanol], the pIC50 in assay [1] (setting [4]), in assay [2] and in assay [3] was above 7.00 in each case.
In the case of `CC(=O)N1CCC(n2cc(-c3cnc(N)c4oc(-c5ccc6nn(C)cc6c5)cc34)cn2)CC1` [Example 145, 1-(4-{4-[7-amino-2-(2-methyl-2H-indazol-5-yl)furo[2,3-c]pyridin-4-yl]-1H-pyrazol-1-yl}piperidin-1-yl)ethanone], the figures for the pIC50 in assay [1] (setting [4]), in assay [2] and in assay [3] were below 5.00, 5.00 to 6.00 and 5.00 to 6.00, respectively.
As for `CC(=O)N1CCC(n2cc(-c3cnc(N)c4oc(-c5cccc([N+](=O)[O-])c5C)cc34)cn2)CC1` [Example 218, 1-(4-{4-[7-amino-2-(2-methyl-3-nitrophenyl)furo[2,3-c]pyridin-4-yl]-1H-pyrazol-1-yl}piperidin-1-yl)ethanone], the pIC50 in assay [1] (setting [4]) was above 7.00; in assay [2], 6.00 to 7.00; in assay [3] it was 6.00 to 7.00.
As to `CC(=O)N1CCC(n2cc(-c3cnc(N)c4oc(-c5c[nH]c6cnccc56)cc34)cn2)CC1` [Example 86, 1-(4-{4-[7-amino-2-(1H-pyrrolo[2,3-c]pyridin-3-yl)furo[2,3-c]pyridin-4-yl]-1H-pyrazol-1-yl}piperidin-1-yl)ethanone], the pIC50 in assay [1] (setting [4]) is above 7.00; in assay [2], 5.00 to 6.00; in assay [3], 5.00 to 6.00.
`Cc1nn(C)cc1-c1cnc(N)c2oc(-c3csc4cnccc34)cc12` [Example 293, 4-(1,3-dimethyl-1H-pyrazol-4-yl)-2-thieno[2,3-c]pyridin-3-yl-furo[2,3-c]pyridin-7-ylamine]: the negative-log IC50 (pIC50) in assay [1] is 5.00 to 6.00; in assay [2] it was 6.00 to 7.00; in assay [3] it was 5.00 to 6.00.
As for `Nc1ncc(-c2cnn(C3CC(=O)C3)c2)c2cc(-c3csc4cnccc34)oc12` [Example 315, 3-[4-(7-amino-2-thieno[2,3-c]pyridin-3-yl-furo[2,3-c]pyridin-4-yl)-pyrazol-1-yl]-cyclobutanone], the pIC50 in assay [1] (setting [4]), in assay [2] and in assay [3] was 6.00 to 7.00 throughout.
With `CC(=O)N1CCC(n2cc(-c3cnc(N)c4oc(-c5cccc6[nH]ccc56)cc34)cn2)CC1` [Example 176, 1-(4-{4-[7-amino-2-(1H-indol-4-yl)furo[2,3-c]pyridin-4-yl]-1H-pyrazol-1-yl}piperidin-1-yl)ethanone], the values for the pIC50 in assay [1] (setting [4]), in assay [2] and in assay [3] were above 7.00, 6.00 to 7.00 and 6.00 to 7.00, respectively.
As for `Nc1ncc(-c2cnn(C3CCN(CCF)CC3)c2)c2cc(-c3cccc4cnccc34)oc12` [Example 83, 4-{1-[1-(2-fluoroethyl)piperidin-4-yl]-1H-pyrazol-4-yl}-2-(isoquinolin-5-yl)furo[2,3-c]pyridin-7-amine], the pIC50 was 6.00 to 7.00 in assay [1] (setting [4]), above 7.00 in assay [2] and 6.00 to 7.00 in assay [3].
For `CC(=O)N1CCC(n2cc(-c3cnc(N)c4oc(-c5ccccc5)cc34)cn2)CC1` [Example 149, 1-{4-[4-(7-amino-2-phenylfuro[2,3-c]pyridin-4-yl)-1H-pyrazol-1-yl]piperidin-1-yl}ethanone], the results for the pIC50 in assay [1] (setting [4]), in assay [2] and in assay [3] were 5.00 to 6.00, 6.00 to 7.00 and 5.00 to 6.00, respectively.
Consider `COCC(=O)N1CCC(n2cc(-c3cnc(N)c4oc(-c5cccc6cnccc56)cc34)cn2)CC1` [Example 50, 1-(4-{4-[7-amino-2-(isoquinolin-5-yl)furo[2,3-c]pyridin-4-yl]-1H-pyrazol-1-yl}piperidin-1-yl)-2-methoxyethanone], for which the pIC50 in assay [1] (setting [4]), in assay [2] and in assay [3] was 6.00 to 7.00 throughout.
Take `CC(=O)N1CCC(n2cc(-c3cnc(N)c4oc(-c5cccc6cnsc56)cc34)cn2)CC1` [Example 226, 1-(4-{4-[7-amino-2-(1,2-benzothiazol-7-yl)furo[2,3-c]pyridin-4-yl]-1H-pyrazol-1-yl}piperidin-1-yl)ethanone]: the pIC50 in assay [1] (setting [4]), in assay [2] and in assay [3] was above 7.00 in each case.
Regarding `C[C@]1(O)CC[C@@H](n2cc(-c3cnc(N)c4oc(-c5cccc6cnccc56)cc34)cn2)CC1` [Example 76, cis-4-{4-[7-amino-2-(isoquinolin-5-yl)furo[2,3-c]pyridin-4-yl]-1H-pyrazol-1-yl}-1-methylcyclohexanol], the pIC50 in assay [1] (setting [4]), in assay [2] and in assay [3] was 6.00 to 7.00 each time.
For `Nc1ncc(-c2cnn(C3CCN(CCO)CC3)c2)c2cc(-c3cccc4cnccc34)oc12` [Example 85, 2-(4-{-4-[7-amino-2-(isoquinolin-5-yl)furo[2,3-c]pyridin-4-yl]-1H-pyrazol-1-yl}piperidin-1-yl)ethanol], the pIC50 in assay [1] (setting [4]), in assay [2] and in assay [3] was 6.00 to 7.00 in each case.
As to `CC(=O)N1CCC(n2cc(-c3cnc(N)c4oc(-c5cccc(O)c5)cc34)cn2)CC1` [Example 132, 1-(4-{4-[7-amino-2-(3-hydroxyphenyl)furo[2,3-c]pyridin-4-yl]-1H-pyrazol-1-yl}piperidin-1-yl)ethanone], the pIC50 was above 7.00 in assay [1] (setting [4]), 6.00 to 7.00 in assay [2] and 6.00 to 7.00 in assay [3].
As to `CCSc1ccccc1-c1cc2c(-c3cnn(C4CCN(C(C)=O)CC4)c3)cnc(N)c2o1` [Example 217], the pIC50 in assay [1] (setting [4]), in assay [2] and in assay [3] was 6.00 to 7.00 throughout.
For the compound `Nc1ncc(-c2cnn([C@H]3CC[C@H](O)CC3)c2)c2cc(-c3csc4cnccc34)oc12` [Example 233, trans-4-{4-[7-amino-2-(thieno[2,3-c]pyridin-3-yl)furo[2,3-c]pyridin-4-yl]-1H-pyrazol-1-yl}cyclohexanol], the pIC50 in assay [1] (setting [4]), in assay [2] and in assay [3] was above 7.00 each time.
As to `COc1cc2c(-c3cc4c(-c5cnn(C6CCN(C(C)=O)CC6)c5)cnc(N)c4o3)csc2cn1` [Example 243, 1-(4-{4-[7-amino-2-(5-methoxythieno[2,3-c]pyridin-3-yl)furo[2,3-c]pyridin-4-yl]-1H-pyrazol-1-yl}piperidin-1-yl)ethanone], the pIC50 in assay [1] (setting [4]) was 5.00 to 6.00; in assay [2] it was 6.00 to 7.00; in assay [3] it was 5.00 to 6.00.
On to `CC(=O)N1CCC(n2cc(-c3cnc(N)c4oc(-c5ccc(O)cc5)cc34)cn2)CC1` [Example 120, 1-(4-{4-[7-amino-2-(4-hydroxyphenyl)furo[2,3-c]pyridin-4-yl]-1H-pyrazol-1-yl}piperidin-1-yl)ethanone], for which the pIC50 in assay [1] (setting [4]), in assay [2] and in assay [3] was 6.00 to 7.00 in each case.
